pEC50: −log10 of the molar value. Residues, ends and D or L forms follow the SMILES beside them.
Assays:
[1] = test system: Human immunodeficiency virus 1; test: Thermal stability of HIV1 envelope glycoprotein gp41 His-tagged N-terminal heptad repeat N54-drug complex assessed as thermal unfolding transition state by measuring molar ellipticity at 4 to 90 degC by circular dichroic spectra analysis
[2] = test system: Human immunodeficiency virus 1; test: Binding affinity to HIV1 His-tagged N-terminal heptad repeat of envelope glycoprotein gp41 assessed as recovery of N54-drug complex after 2 hrs by LC-MS analysis; parameters: concentration or dose not given beside the values
[3] = test system: Human immunodeficiency virus 1; test: Antiviral activity against HIV1 NL4-3 harboring gp41 D36G mutant infected in human HeLa cells expressing CD4-LTR-beta-gal assessed as inhibition of viral replication after 48 hrs by MAGI assay; assay type: functional, organism-based

SMILES	Tm [1]	Activity [2]	pEC50 [3]
CC[C@H](C)[C@H](NC(=O)[C@H](CC(C)C)NC(=O)[C@H](CCC(=O)O)NC(=O)[C@H](CCC(=O)O)NC(=O)[C@@H](NC(=O)[C@H](CC(C)C)NC(=O)[C@H](CO)NC(=O)[C@@H](NC(=O)[C@H](Cc1ccc(O)cc1)NC(C)=O)[C@@H](C)O)[C@@H](C)CC)C(=O)N[C@@H](CCCCN)C(=O)N[C@@H](CCCCN)C(=O)N[C@@H](CCCNC(=N)N)C(=O)N[C@@H](CCC(=O)O)C(=O)N[C@@H](CCC(=O)O)C(=O)N[C@@H](CCC(N)=O)C(=O)N[C@@H](CCC(N)=O)C(=O)N[C@@H](CCCCN)C(=O)N[C@@H](CCCCN)C(=O)N[C@@H](CC(N)=O)C(=O)N[C@@H](CCC(=O)O)C(=O)N[C@@H](CCC(=O)O)C(=O)N[C@@H](CCC(=O)O)C(=O)N[C@@H](CC(C)C)C(=O)N[C@@H](CCCCN)C(=O)N[C@@H](CCCCN)C(=O)N[C@@H](CC(C)C)C(=O)N[C@@H](CCC(=O)O)C(=O)N[C@@H](CCC(=O)O)C(=O)N[C@@H](Cc1c[nH]c2ccccc12)C(=O)N[C@@H](C)C(=O)N[C@@H](CCCCN)C(=O)N[C@@H](CCCCN)C(=O)N[C@@H](Cc1c[nH]c2ccccc12)C(=O)N[C@@H](CC(N)=O)C(=O)N[C@@H](Cc1c[nH]c2ccccc12)C(=O)N[C@@H](Cc1ccccc1)C(=O)O (Ac-YTSLIEELIKKREEQQKKNEEELKKLEEWAKKWNWF-OH)	49.4 °C	1.5%	6.49
CC[C@H](C)[C@H](NC(=O)[C@H](CC(C)C)NC(=O)[C@H](CCC(=O)O)NC(=O)[C@H](CCC(=O)O)NC(=O)[C@@H](NC(=O)[C@H](CC(C)C)NC(=O)[C@H](CO)NC(=O)[C@@H](NC(=O)[C@H](Cc1ccc(O)cc1)NC(C)=O)[C@@H](C)O)[C@@H](C)CC)C(=O)N[C@@H](CCCCN)C(=O)N[C@@H](CCCCN)C(=O)N[C@@H](CCCCN)C(=O)N[C@@H](CCC(=O)O)C(=O)N[C@@H](CCC(=O)O)C(=O)N[C@@H](CCC(N)=O)C(=O)N[C@@H](CCC(N)=O)C(=O)N[C@@H](CCCCN)C(=O)N[C@@H](CCCCN)C(=O)N[C@@H](CC(N)=O)C(=O)N[C@@H](CCC(=O)O)C(=O)N[C@@H](CCC(=O)O)C(=O)N[C@@H](CCC(=O)O)C(=O)N[C@@H](CC(C)C)C(=O)N[C@@H](CCCCN)C(=O)N[C@@H](CCCCN)C(=O)N[C@@H](CC(C)C)C(=O)N[C@@H](CCC(=O)O)C(=O)N[C@@H](CCC(=O)O)C(=O)N[C@@H](Cc1c[nH]c2ccccc12)C(=O)N[C@@H](C)C(=O)N[C@@H](CCCCN)C(=O)N[C@@H](CCCCN)C(=O)N[C@@H](Cc1c[nH]c2ccccc12)C(=O)N[C@@H](CC(N)=O)C(=O)N[C@@H](Cc1c[nH]c2ccccc12)C(=O)N[C@@H](Cc1ccccc1)C(N)=O (Ac-YTSLIEELIKKKEEQQKKNEEELKKLEEWAKKWNWF-NH2)	50.6 °C	0.8%	6.48
CC[C@H](C)[C@H](NC(=O)[C@H](CC(C)C)NC(=O)[C@H](CCC(=O)O)NC(=O)[C@H](CCC(=O)O)NC(=O)[C@@H](NC(=O)[C@H](CC(C)C)NC(=O)[C@H](CO)NC(=O)[C@@H](NC(=O)[C@H](Cc1ccc(O)cc1)NC(C)=O)[C@@H](C)O)[C@@H](C)CC)C(=O)N[C@@H](CCCCN)C(=O)N[C@@H](CCCCN)C(=O)N[C@@H](CO)C(=O)N[C@@H](CCC(=O)O)C(=O)N[C@@H](CCC(=O)O)C(=O)N[C@@H](CCCNC(=N)N)C(=O)N[C@@H](CCC(N)=O)C(=O)N[C@@H](CCCCN)C(=O)N[C@@H](CCCCN)C(=O)N[C@@H](CC(N)=O)C(=O)N[C@@H](CCC(=O)O)C(=O)N[C@@H](CCC(=O)O)C(=O)N[C@@H](CCC(=O)O)C(=O)N[C@@H](CC(C)C)C(=O)N[C@@H](CCCCN)C(=O)N[C@@H](CCCCN)C(=O)N[C@@H](CC(C)C)C(=O)N[C@@H](CCC(=O)O)C(=O)N[C@@H](CCC(=O)O)C(=O)N[C@@H](Cc1c[nH]c2ccccc12)C(=O)N[C@@H](C)C(=O)N[C@@H](CCCCN)C(=O)N[C@@H](CCCCN)C(=O)N[C@@H](Cc1c[nH]c2ccccc12)C(=O)N[C@@H](CC(N)=O)C(=O)N[C@@H](Cc1c[nH]c2ccccc12)C(=O)N[C@@H](Cc1ccccc1)C(N)=O (Ac-YTSLIEELIKKSEERQKKNEEELKKLEEWAKKWNWF-NH2)	68.9 °C	7.2%	8.82
CC[C@H](C)[C@H](NC(=O)[C@H](CC(C)C)NC(=O)[C@H](CCC(=O)O)NC(=O)[C@H](CCC(=O)O)NC(=O)[C@@H](NC(=O)[C@H](CC(C)C)NC(=O)[C@H](CO)NC(=O)[C@@H](NC(=O)[C@H](Cc1ccc(O)cc1)NC(C)=O)[C@@H](C)O)[C@@H](C)CC)C(=O)N[C@@H](CCCCN)C(=O)N[C@@H](CCCCN)C(=O)N[C@H](C(=O)N[C@@H](CCC(=O)O)C(=O)N[C@@H](CCC(=O)O)C(=O)N[C@@H](CCC(N)=O)C(=O)N[C@@H](CCC(N)=O)C(=O)N[C@@H](CCCCN)C(=O)N[C@@H](CCCCN)C(=O)N[C@@H](CC(N)=O)C(=O)N[C@@H](CCC(=O)O)C(=O)N[C@@H](CCC(=O)O)C(=O)N[C@@H](CCC(=O)O)C(=O)N[C@@H](CC(C)C)C(=O)N[C@@H](CCCCN)C(=O)N[C@@H](CCCCN)C(=O)N[C@@H](CC(C)C)C(=O)N[C@@H](CCC(=O)O)C(=O)N[C@@H](CCC(=O)O)C(=O)N[C@@H](Cc1c[nH]c2ccccc12)C(=O)N[C@@H](C)C(=O)N[C@@H](CCCCN)C(=O)N[C@@H](CCCCN)C(=O)N[C@@H](Cc1c[nH]c2ccccc12)C(=O)N[C@@H](CC(N)=O)C(=O)N[C@@H](Cc1c[nH]c2ccccc12)C(=O)N[C@@H](Cc1ccccc1)C(N)=O)C(C)C (Ac-YTSLIEELIKKVEEQQKKNEEELKKLEEWAKKWNWF-NH2)	76 °C	9.4%	9.52
CC[C@H](C)[C@H](NC(=O)[C@H](CC(C)C)NC(=O)[C@H](CCC(=O)O)NC(=O)[C@H](CCC(=O)O)NC(=O)[C@@H](NC(=O)[C@H](CC(C)C)NC(=O)[C@H](CO)NC(=O)[C@@H](NC(=O)[C@H](Cc1ccc(O)cc1)NC(C)=O)[C@@H](C)O)[C@@H](C)CC)C(=O)N[C@@H](CCCCN)C(=O)N[C@@H](CCCCN)C(=O)N[C@@H](Cc1cnc[nH]1)C(=O)N[C@@H](CCC(=O)O)C(=O)N[C@@H](CCC(=O)O)C(=O)N[C@@H](CCC(N)=O)C(=O)N[C@@H](CCC(N)=O)C(=O)N[C@@H](CCCCN)C(=O)N[C@@H](CCCCN)C(=O)N[C@@H](CC(N)=O)C(=O)N[C@@H](CCC(=O)O)C(=O)N[C@@H](CCC(=O)O)C(=O)N[C@@H](CCC(=O)O)C(=O)N[C@@H](CC(C)C)C(=O)N[C@@H](CCCCN)C(=O)N[C@@H](CCCCN)C(=O)N[C@@H](CC(C)C)C(=O)N[C@@H](CCC(=O)O)C(=O)N[C@@H](CCC(=O)O)C(=O)N[C@@H](Cc1c[nH]c2ccccc12)C(=O)N[C@@H](C)C(=O)N[C@@H](CCCCN)C(=O)N[C@@H](CCCCN)C(=O)N[C@@H](Cc1c[nH]c2ccccc12)C(=O)N[C@@H](CC(N)=O)C(=O)N[C@@H](Cc1c[nH]c2ccccc12)C(=O)N[C@@H](Cc1ccccc1)C(N)=O (Ac-YTSLIEELIKKHEEQQKKNEEELKKLEEWAKKWNWF-NH2)	58.5 °C	3.2%	7.46
CC[C@H](C)[C@H](NC(=O)[C@H](CC(C)C)NC(=O)[C@H](CCC(=O)O)NC(=O)[C@H](CCC(=O)O)NC(=O)[C@@H](NC(=O)[C@H](CC(C)C)NC(=O)[C@H](CO)NC(=O)[C@@H](NC(=O)[C@H](Cc1ccc(O)cc1)NC(C)=O)[C@@H](C)O)[C@@H](C)CC)C(=O)N[C@@H](CCCCN)C(=O)N[C@@H](CCCCN)C(=O)N[C@@H](CO)C(=O)N[C@@H](CCC(=O)O)C(=O)N[C@@H](CCC(=O)O)C(=O)N[C@@H](CCSC)C(=O)N[C@@H](CCC(N)=O)C(=O)N[C@@H](CCCCN)C(=O)N[C@@H](CCCCN)C(=O)N[C@@H](CC(N)=O)C(=O)N[C@@H](CCC(=O)O)C(=O)N[C@@H](CCC(=O)O)C(=O)N[C@@H](CCC(=O)O)C(=O)N[C@@H](CC(C)C)C(=O)N[C@@H](CCCCN)C(=O)N[C@@H](CCCCN)C(=O)N[C@@H](CC(C)C)C(=O)N[C@@H](CCC(=O)O)C(=O)N[C@@H](CCC(=O)O)C(=O)N[C@@H](Cc1c[nH]c2ccccc12)C(=O)N[C@@H](C)C(=O)N[C@@H](CCCCN)C(=O)N[C@@H](CCCCN)C(=O)N[C@@H](Cc1c[nH]c2ccccc12)C(=O)N[C@@H](CC(N)=O)C(=O)N[C@@H](Cc1c[nH]c2ccccc12)C(=O)N[C@@H](Cc1ccccc1)C(N)=O (Ac-YTSLIEELIKKSEEMQKKNEEELKKLEEWAKKWNWF-NH2)	74.6 °C	9.2%	9.05
CC[C@H](C)[C@H](NC(=O)[C@H](CC(C)C)NC(=O)[C@H](CCC(=O)O)NC(=O)[C@H](CCC(=O)O)NC(=O)[C@@H](NC(=O)[C@H](CC(C)C)NC(=O)[C@H](CO)NC(=O)[C@@H](NC(=O)[C@H](Cc1ccc(O)cc1)NC(C)=O)[C@@H](C)O)[C@@H](C)CC)C(=O)N[C@@H](CCCCN)C(=O)N[C@@H](CCCCN)C(=O)N[C@@H](CO)C(=O)N[C@@H](CCC(=O)O)C(=O)N[C@@H](CCC(=O)O)C(=O)NCC(=O)N[C@@H](CCC(N)=O)C(=O)N[C@@H](CCCCN)C(=O)N[C@@H](CCCCN)C(=O)N[C@@H](CC(N)=O)C(=O)N[C@@H](CCC(=O)O)C(=O)N[C@@H](CCC(=O)O)C(=O)N[C@@H](CCC(=O)O)C(=O)N[C@@H](CC(C)C)C(=O)N[C@@H](CCCCN)C(=O)N[C@@H](CCCCN)C(=O)N[C@@H](CC(C)C)C(=O)N[C@@H](CCC(=O)O)C(=O)N[C@@H](CCC(=O)O)C(=O)N[C@@H](Cc1c[nH]c2ccccc12)C(=O)N[C@@H](C)C(=O)N[C@@H](CCCCN)C(=O)N[C@@H](CCCCN)C(=O)N[C@@H](Cc1c[nH]c2ccccc12)C(=O)N[C@@H](CC(N)=O)C(=O)N[C@@H](Cc1c[nH]c2ccccc12)C(=O)N[C@@H](Cc1ccccc1)C(N)=O (Ac-YTSLIEELIKKSEEGQKKNEEELKKLEEWAKKWNWF-NH2)	66.2 °C	3.4%	8.52
